Laboratory results taken from US20240261271A1, “APPLICATION OF HYDRONIDONE IN PREPARATION OF DRUG FOR TREATING OR PREVENTING CHRONIC HEPATITIS B WITH LIVER FIBROSIS” (priority 2021, published 2024).
“And” between values parts separate entries of the source, which are not always exact repeats. Equal entries are not always repeated.

Tested on: chronic hepatitis B with hepatic fibrosis
Experiment: Phase II clinical study: hepatic fibrosis Ishak score by liver biopsy, before and after 52 weeks of treatment on entecavir basic treatment
Format: in vivo, human
Details: for Rate difference (C-D) % and 95% CI, Ishak score decreased by ≥1: 180 mg group minus 270 mg group; for Hepatic fibrosis Ishak score, Mean (SD) / Hepatic fibrosis Ishak score, Median / Ishak score 0 point, n(%) / Ishak score 1 point, n(%) / Ishak score 2 points, n(%) / Ishak score 3 points, n(%) / Ishak score 4 points, n(%) / Ishak score 5 points, n(%) / Ishak score 6 points, n(%) / Progressive Ishak score (increases by ≥1 compared with the baseline) / Reversed Ishak score (decreases by ≥1 point compared with the baseline) / Stable Ishak score (unchanged compared with the baseline): 52 weeks of treatment
Method: This is a randomized, double-blind, placebo-controlled, multicenter, and dose-finding phase II clinical study with foundational treatment. In the clinical trial, three different dose test groups and a placebo control group were set on the basis of the entecavir capsule antiviral treatment, and the planned sample amount of each group was 60 cases, totaling 240 cases. The three dose test groups were 180 mg group, 270 mg group, and 360 mg group, respectively. […]

[1] = 180 mg group, FAS, 52 weeks of treatment vs baseline, all subjects
[2] = 180 mg group, FAS, all subjects
[3] = 180 mg group, FAS, baseline Ishak score ≥3
[4] = 180 mg group, FAS, screening period-follow-up 15 (52 weeks), baseline Ishak score ≥3
[5] = 180 mg group, PPS, 52 weeks of treatment vs baseline, all subjects
[6] = 180 mg group, PPS, all subjects
[7] = 180 mg group, PPS, baseline Ishak score ≥3
[8] = 180 mg group, PPS, screening period-follow-up 15 (52 weeks), baseline Ishak score ≥3
[9] = 270 mg group, FAS, 52 weeks of treatment vs baseline, all subjects
[10] = 270 mg group, FAS, all subjects
[11] = 270 mg group, FAS, baseline Ishak score ≥3
[12] = 270 mg group, FAS, screening period-follow-up 15 (52 weeks), baseline Ishak score ≥3
[13] = 270 mg group, PPS, 52 weeks of treatment vs baseline, all subjects
[14] = 270 mg group, PPS, all subjects
[15] = 270 mg group, PPS, baseline Ishak score ≥3

## Cc1ccc(=O)n(-c2ccc(O)cc2)c1 [hydronidone]
FAS, 52 weeks, all subjects
  Rate difference (C-D) % and 95% CI, Ishak score decreased by ≥1: −15.62(−35.03, 5.65) %
FAS, 52 weeks, baseline Ishak score ≥3
  Rate difference (C-D) % and 95% CI, Ishak score decreased by ≥1: −10.12(−34.40, 15.62) %
PPS, 52 weeks, all subjects
  Rate difference (C-D) % and 95% CI, Ishak score decreased by ≥1: −18.49(−38.82, 4.38) %
PPS, 52 weeks, baseline Ishak score ≥3
  Rate difference (C-D) % and 95% CI, Ishak score decreased by ≥1: −12.91(−37.46, 13.45) %
[1]
  Ishak score decreased by <1, n(%): 25(59.52) n(%)
  Ishak score decreased by ≥1, n(%): 17 (40.48%) n(%) and 17(40.48) n(%)
[2]
  Hepatic fibrosis Ishak score, Mean (SD): 2.71(1.88)
  Hepatic fibrosis Ishak score, Median: 2.00
  Ishak score 0 point, n(%): 3(7.14) n(%)
  Ishak score 1 point, n(%): 12(28.57) n(%)
  Ishak score 2 points, n(%): 8(19.05) n(%)
  Ishak score 3 points, n(%): 4(9.52) n(%)
  Ishak score 4 points, n(%): 5(11.90) n(%)
  Ishak score 5 points, n(%): 6(14.29) n(%)
  Ishak score 6 points, n(%): 4(9.52) n(%)
  Progressive Ishak score (increases by ≥1 compared with the baseline): 7 (16.67%) n(%) and 7(16.67) n(%)
  Reversed Ishak score (decreases by ≥1 point compared with the baseline): 17(40.48) n(%)
  Stable Ishak score (unchanged compared with the baseline): 18 (42.86%) n(%) and 18(42.86) n(%)
  Ishak score change, Baseline-52 weeks of treatment, Mean (SD): 0.43(1.25)
  Ishak score change, Baseline-52 weeks of treatment, Median: 0.00
[3]
  Ishak score 0 point, n(%): 1(4.17) n(%)
  Ishak score 1 point, n(%): 4(16.67) n(%)
  Ishak score 2 points, n(%): 1(4.17) n(%)
  Ishak score 3 points, n(%): 3(12.50) n(%)
  Ishak score 4 points, n(%): 5(20.83) n(%)
  Ishak score 5 points, n(%): 6(25.00) n(%)
  Ishak score 6 points, n(%): 4(16.67) n(%)
[4]
  Ishak score decreased by <1, n(%): 11(45.83) n(%)
  Ishak score decreased by ≥1, n(%): 13(54.17) n(%)
[5]
  Ishak score decreased by <1, n(%): 19(52.78) n(%)
  Ishak score decreased by ≥1, n(%): 17 (47.22%) n(%) and 17(47.22) n(%)
[6]
  Hepatic fibrosis Ishak score, Mean (SD): 2.67(1.88)
  Hepatic fibrosis Ishak score, Median: 2.00
  Ishak score 0 point, n(%): 3(8.33) n(%)
  Ishak score 1 point, n(%): 11(30.56) n(%)
  Ishak score 2 points, n(%): 5(13.89) n(%)
  Ishak score 3 points, n(%): 4(11.11) n(%)
  Ishak score 4 points, n(%): 5(13.89) n(%)
  Ishak score 5 points, n(%): 5(13.89) n(%)
  Ishak score 6 points, n(%): 3(8.33) n(%)
  Progressive Ishak score (increases by ≥1 compared with the baseline): 7 (19.44%) n(%) and 7(19.44) n(%)
  Reversed Ishak score (decreases by ≥1 point compared with the baseline): 17(47.22) n(%)
  Stable Ishak score (unchanged compared with the baseline): 12 (33.33%) n(%) and 12(33.33) n(%)
  Ishak score change, Baseline-52 weeks of treatment, Mean (SD): 0.50(1.34)
  Ishak score change, Baseline-52 weeks of treatment, Median: 0.00
[7]
  Ishak score 0 point, n(%): 1(4.55) n(%)
  Ishak score 1 point, n(%): 4(18.18) n(%)
  Ishak score 2 points, n(%): 1(4.55) n(%)
  Ishak score 3 points, n(%): 3(13.64) n(%)
  Ishak score 4 points, n(%): 5(22.73) n(%)
  Ishak score 5 points, n(%): 5(22.73) n(%)
  Ishak score 6 points, n(%): 3(13.64) n(%)
[8]
  Ishak score decreased by <1, n(%): 9(40.91) n(%)
  Ishak score decreased by ≥1, n(%): 13(59.09) n(%)
270 mg group + 360 mg group, FAS, 52 weeks, baseline Ishak score = 6 (cirrhosis)
  Ishak score decreased by ≥1, n(%): 9(90.00) n(%)
270 mg group + 360 mg group, FAS, 52 weeks, baseline Ishak score ≥3 (significant fibrosis)
  Ishak score decreased by ≥1, n(%): 35(61.40) n(%)
270 mg group + 360 mg group, FAS, 52 weeks, baseline Ishak score ≥4 (progressive fibrosis)
  Ishak score decreased by ≥1, n(%): 22(64.71) n(%)
270 mg group + 360 mg group, FAS, 52 weeks, baseline Ishak score ≥5 (early cirrhosis)
  Ishak score decreased by ≥1, n(%): 17(65.38) n(%)
270 mg group + 360 mg group, PPS, 52 weeks, baseline Ishak score = 6 (cirrhosis)
  Ishak score decreased by ≥1, n(%): 9(90.00) n(%)
270 mg group + 360 mg group, PPS, 52 weeks, baseline Ishak score ≥3 (significant fibrosis)
  Ishak score decreased by ≥1, n(%): 35(70.00) n(%)
270 mg group + 360 mg group, PPS, 52 weeks, baseline Ishak score ≥4 (progressive fibrosis)
  Ishak score decreased by ≥1, n(%): 22(70.97) n(%)
270 mg group + 360 mg group, PPS, 52 weeks, baseline Ishak score ≥5 (early cirrhosis)
  Ishak score decreased by ≥1, n(%): 17(70.83) n(%)
[9]
  Ishak score decreased by <1, n(%): 18(43.90) n(%)
  Ishak score decreased by ≥1, n(%): 23 (56.10%) n(%) and 23(56.10) n(%)
[10]
  Hepatic fibrosis Ishak score, Mean (SD): 2.64(1.74)
  Hepatic fibrosis Ishak score, Median: 2.00
  Ishak score 0 point, n(%): 2(5.13) n(%)
  Ishak score 1 point, n(%): 12(30.77) n(%)
  Ishak score 2 points, n(%): 7(17.95) n(%)
  Ishak score 3 points, n(%): 5(12.82) n(%)
  Ishak score 4 points, n(%): 5(12.82) n(%)
  Ishak score 5 points, n(%): 6(15.38) n(%)
  Ishak score 6 points, n(%): 2(5.13) n(%)
  Progressive Ishak score (increases by ≥1 compared with the baseline): 4 (9.76%) n(%) and 4(9.76) n(%)
  Reversed Ishak score (decreases by ≥1 point compared with the baseline): 23(56.10) n(%)
  Stable Ishak score (unchanged compared with the baseline): 14 (34.15%) n(%) and 14(34.15) n(%)
  Ishak score change, Baseline-52 weeks of treatment, Mean (SD): 0.78(1.11)
  Ishak score change, Baseline-52 weeks of treatment, Median: 1.00
[11]
  Ishak score 0 point, n(%): 2(7.14) n(%)
  Ishak score 1 point, n(%): 4(14.29) n(%)
  Ishak score 2 points, n(%): 4(14.29) n(%)
  Ishak score 3 points, n(%): 5(17.86) n(%)
  Ishak score 4 points, n(%): 5(17.86) n(%)
  Ishak score 5 points, n(%): 6(21.43) n(%)
  Ishak score 6 points, n(%): 2(7.14) n(%)
[12]
  Ishak score decreased by <1, n(%): 10(35.71) n(%)
  Ishak score decreased by ≥1, n(%): 18(64.29) n(%)
[13]
  Ishak score decreased by <1, n(%): 12(34.29) n(%)
  Ishak score decreased by ≥1, n(%): 23 (65.71%) n(%) and 23(65.71) n(%)
[14]
  Hepatic fibrosis Ishak score, Mean (SD): 2.60(1.77)
  Hepatic fibrosis Ishak score, Median: 2.00
  Ishak score 0 point, n(%): 2(5.71) n(%)
  Ishak score 1 point, n(%): 11(31.43) n(%)
  Ishak score 2 points, n(%): 7(20.00) n(%)
  Ishak score 3 points, n(%): 3(8.57) n(%)
  Ishak score 4 points, n(%): 5(14.29) n(%)
  Ishak score 5 points, n(%): 5(14.29) n(%)
  Ishak score 6 points, n(%): 2(5.71) n(%)
  Progressive Ishak score (increases by ≥1 compared with the baseline): 4 (11.43%) n(%) and 4(11.43) n(%)
  Reversed Ishak score (decreases by ≥1 point compared with the baseline): 23(65.71) n(%)
  Stable Ishak score (unchanged compared with the baseline): 8 (22.86%) n(%) and 8(22.86) n(%)
[15]
  Ishak score 0 point, n(%): 2(8.00) n(%)
  Ishak score 1 point, n(%): 4(16.00) n(%)
  Ishak score 2 points, n(%): 4(16.00) n(%)
  Ishak score 3 points, n(%): 3(12.00) n(%)
